Data on 19 compounds can be found in patent publication US20230365576A1, “BRM Targeting Compounds And Associated Methods Of Use” (Prelude Therapeutics Incorporated, priority 2022, published 2023).

One may read the Dmax as the largest share of the target that was removed. A lower Dmax goes with shallow degradation.

In one assay the target is T1, SMARCA2 (Homo sapiens, UniProt P51531).
T1 construct: SMARCA2-HiBiT knock-in Hela monoclonal cell (CS302366); host or cells: HeLa (CRISPR HiBiT knock-in monoclonal line, heterozygous)
In words: SMARCA2 HiBiT degradation assay in HeLa cells. In kind it is cell-based. Particulars: 18 hours; for DC50: read-out: SMARCA2 IC50; for Dmax: HeLa. In outline:
(§1)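 Degradation measured as HiBiT luminescence (Nano-Glo lytic reagent) after 18 h compound exposure at 37° C. Cells were HeLa clones carrying heterozygous HiBiT tags on SMARCA2 or SMARCA4, 2500 per well; compounds at 3-fold serial dilution from 10 μM.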
In general terms: The HiBiT peptide binds its large partner to form an active luciferase.

The target of the next assay is T2, SMARCA4 (Homo sapiens, UniProt P51532).
T2 construct: SMARCA4-HiBiT knock-in Hela monoclonal cell (CS3023226) were purchased from Promega; host or cells: HeLa (CRISPR HiBiT knock-in monoclonal line, heterozygous)
In words: SMARCA4 HiBiT degradation assay in HeLa cells. In kind it is cell-based. The note with it: 18 hours; for Dmax: HeLa. An outline of the steps: as §1

Some results are limits rather than exact numbers.

T1 sequence (P51531 whole entry): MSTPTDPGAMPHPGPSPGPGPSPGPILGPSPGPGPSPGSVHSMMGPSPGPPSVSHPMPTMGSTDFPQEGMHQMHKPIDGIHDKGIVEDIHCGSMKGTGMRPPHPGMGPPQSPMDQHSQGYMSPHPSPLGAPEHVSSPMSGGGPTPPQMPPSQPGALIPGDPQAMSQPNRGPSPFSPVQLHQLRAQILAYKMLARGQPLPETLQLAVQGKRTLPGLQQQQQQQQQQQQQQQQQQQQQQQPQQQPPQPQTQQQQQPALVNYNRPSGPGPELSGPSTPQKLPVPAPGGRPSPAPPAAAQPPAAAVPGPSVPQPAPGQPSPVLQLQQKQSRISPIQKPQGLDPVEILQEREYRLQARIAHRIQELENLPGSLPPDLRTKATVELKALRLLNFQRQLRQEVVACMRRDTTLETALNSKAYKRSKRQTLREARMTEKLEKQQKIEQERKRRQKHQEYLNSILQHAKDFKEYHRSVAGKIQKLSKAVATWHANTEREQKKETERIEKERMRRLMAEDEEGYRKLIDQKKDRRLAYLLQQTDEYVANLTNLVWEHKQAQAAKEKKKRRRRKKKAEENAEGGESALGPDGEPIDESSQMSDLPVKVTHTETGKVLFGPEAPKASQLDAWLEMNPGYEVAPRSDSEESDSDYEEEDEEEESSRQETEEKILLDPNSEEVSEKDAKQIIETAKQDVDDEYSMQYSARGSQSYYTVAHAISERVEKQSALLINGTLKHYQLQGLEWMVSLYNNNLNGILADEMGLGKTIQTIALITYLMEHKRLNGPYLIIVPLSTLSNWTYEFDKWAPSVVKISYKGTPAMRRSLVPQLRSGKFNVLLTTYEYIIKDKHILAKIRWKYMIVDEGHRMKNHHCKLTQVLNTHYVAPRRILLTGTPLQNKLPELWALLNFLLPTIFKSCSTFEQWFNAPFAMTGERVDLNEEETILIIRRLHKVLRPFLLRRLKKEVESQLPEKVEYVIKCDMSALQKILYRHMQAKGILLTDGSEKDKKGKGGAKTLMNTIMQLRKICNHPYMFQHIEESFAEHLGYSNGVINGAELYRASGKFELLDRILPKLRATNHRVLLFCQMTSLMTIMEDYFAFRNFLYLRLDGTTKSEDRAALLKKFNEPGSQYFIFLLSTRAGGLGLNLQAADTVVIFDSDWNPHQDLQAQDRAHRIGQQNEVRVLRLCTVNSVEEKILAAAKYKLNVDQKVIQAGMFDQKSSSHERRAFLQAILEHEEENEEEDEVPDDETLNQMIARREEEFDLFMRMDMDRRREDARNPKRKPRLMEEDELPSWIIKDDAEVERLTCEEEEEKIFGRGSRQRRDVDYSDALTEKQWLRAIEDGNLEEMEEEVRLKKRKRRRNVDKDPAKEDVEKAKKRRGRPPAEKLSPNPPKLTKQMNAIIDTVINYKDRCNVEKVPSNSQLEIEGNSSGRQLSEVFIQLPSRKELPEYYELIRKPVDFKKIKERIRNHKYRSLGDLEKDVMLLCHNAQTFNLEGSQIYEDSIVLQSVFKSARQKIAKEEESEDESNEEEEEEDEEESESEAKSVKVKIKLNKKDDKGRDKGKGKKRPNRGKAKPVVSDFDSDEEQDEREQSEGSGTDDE
T2 sequence (P51532 whole entry): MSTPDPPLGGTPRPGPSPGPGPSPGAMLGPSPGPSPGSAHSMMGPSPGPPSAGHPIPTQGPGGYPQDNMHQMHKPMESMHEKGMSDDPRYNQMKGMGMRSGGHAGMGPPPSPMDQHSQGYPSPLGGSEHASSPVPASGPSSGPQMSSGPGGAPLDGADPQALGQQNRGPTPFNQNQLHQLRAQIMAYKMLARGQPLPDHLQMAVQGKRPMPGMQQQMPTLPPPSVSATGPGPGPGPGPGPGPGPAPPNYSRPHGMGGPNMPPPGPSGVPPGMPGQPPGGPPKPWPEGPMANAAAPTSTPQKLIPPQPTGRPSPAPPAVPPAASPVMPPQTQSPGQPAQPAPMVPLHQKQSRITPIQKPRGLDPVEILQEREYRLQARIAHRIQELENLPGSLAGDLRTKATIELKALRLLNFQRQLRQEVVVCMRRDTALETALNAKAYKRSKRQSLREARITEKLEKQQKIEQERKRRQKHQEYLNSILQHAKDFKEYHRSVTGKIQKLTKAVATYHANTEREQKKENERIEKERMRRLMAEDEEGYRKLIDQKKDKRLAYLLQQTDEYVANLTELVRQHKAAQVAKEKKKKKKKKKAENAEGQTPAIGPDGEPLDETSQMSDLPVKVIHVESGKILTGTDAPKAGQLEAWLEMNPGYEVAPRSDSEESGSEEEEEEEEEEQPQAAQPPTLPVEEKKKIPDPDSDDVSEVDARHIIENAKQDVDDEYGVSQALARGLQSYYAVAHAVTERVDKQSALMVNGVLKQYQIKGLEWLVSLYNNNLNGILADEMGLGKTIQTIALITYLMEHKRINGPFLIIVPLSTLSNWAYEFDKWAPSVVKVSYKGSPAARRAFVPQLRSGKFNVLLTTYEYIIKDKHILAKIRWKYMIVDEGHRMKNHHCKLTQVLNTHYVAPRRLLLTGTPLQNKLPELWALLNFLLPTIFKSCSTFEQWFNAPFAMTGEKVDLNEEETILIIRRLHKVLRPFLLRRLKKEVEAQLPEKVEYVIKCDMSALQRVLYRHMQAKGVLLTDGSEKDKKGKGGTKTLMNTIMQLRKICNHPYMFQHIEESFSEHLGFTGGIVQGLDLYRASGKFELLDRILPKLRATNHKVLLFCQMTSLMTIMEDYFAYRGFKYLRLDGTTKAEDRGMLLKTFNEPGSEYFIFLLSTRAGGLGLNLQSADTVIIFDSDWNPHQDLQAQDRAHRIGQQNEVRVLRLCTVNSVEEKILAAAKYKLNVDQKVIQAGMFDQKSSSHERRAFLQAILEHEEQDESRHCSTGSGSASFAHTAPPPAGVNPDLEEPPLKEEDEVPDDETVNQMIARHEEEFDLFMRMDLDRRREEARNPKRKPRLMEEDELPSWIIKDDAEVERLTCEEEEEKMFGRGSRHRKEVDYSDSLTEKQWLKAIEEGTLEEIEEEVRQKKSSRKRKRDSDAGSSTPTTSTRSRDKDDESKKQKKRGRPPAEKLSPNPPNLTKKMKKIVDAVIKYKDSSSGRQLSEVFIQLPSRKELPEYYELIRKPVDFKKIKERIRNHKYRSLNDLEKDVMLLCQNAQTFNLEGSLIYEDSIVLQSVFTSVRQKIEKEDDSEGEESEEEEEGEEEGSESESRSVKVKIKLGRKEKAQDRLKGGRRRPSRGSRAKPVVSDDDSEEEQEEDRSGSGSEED

Take `C[C@@H]1CN(CC2CCN(c3ccc4c(c3)C(=O)N(C3CCC(=O)NC3=O)C4)CC2)C[C@H](C)N1C(=O)N1CCN2c3cc(-c4cccc(F)c4O)nnc3NCC2(C)C1` (single isomer, unassigned) [Example 12]: on SMARCA2, the “SMARCA2 DMax %” value is on record as “A (A=Dmax>75%)” and the DC50 is < 100 nM. Besides, on SMARCA4, the DC50 is < 100 nM and the “SMARCA4 DMax %” value was “A (A=Dmax>75%)”.

Take `C[C@@H]1CN(CC2CCN(c3ccc4c(c3)C(=O)N([C@H]3CCC(=O)NC3=O)C4)CC2)C[C@H](C)N1C(=O)N1CCN2c3cc(-c4cccc(F)c4O)nnc3NCC2(C(F)(F)F)C1` (single isomer, unassigned) [Example 95]: the DC50 on SMARCA2 and on SMARCA4 was < 100 nM throughout. The Dmax at SMARCA2 and at SMARCA4 was > 75% throughout.

For the compound `C[C@@H]1CN(CC2CN(c3ccc4c(c3)C(=O)N(C3CCC(=O)NC3=O)C4)C2)C[C@H](C)N1C(=O)N1CCN2c3cc(-c4cc(F)cc(F)c4O)nnc3NC[C@H]2C1` (stereo partly drawn) [Example 20, 3-(6-(3-(((3R,5S)-4-((S)-2-(3,5-difluoro-2-hydroxyphenyl)-6,6a,7,8,9,10-hexahydro-5H-pyrazino[1′,2′:4,5]pyrazino[2,3-c]pyridazine-8-carbonyl)-3,5-dimethylpiperazin-1-yl)methyl)azetidin-1-yl)-1-oxoisoindolin-2-yl)piperidine-2,6-dione], at SMARCA2, the DC50 was < 100 nM and the Dmax was > 75%. On SMARCA4, the DC50 is < 100 nM and the maximal degradation (Dmax) was < 50%.

As for `C[C@H]1CN(CC2CCN(c3ccc4c(c3)C(=O)N([C@H]3CCC(=O)NC3=O)C4)CC2)C[C@H](C)N1C(=O)N1CCN2c3cc(-c4cccc(F)c4O)nnc3NC[C@]2(C(F)F)C1` [Example 66, (S)-3-(6-(4-(((3S,5S)-4-((R)-6a-(difluoromethyl)-2-(3-fluoro-2-hydroxyphenyl)-6,6a,7,8,9,10-hexahydro-5H-pyrazino[1′,2′:4,5]pyrazino[2,3-c]pyridazine-8-carbonyl)-3,5-dimethylpiperazin-1-yl)methyl)piperidin-1-yl)-1-oxoisoindolin-2-yl)piperidine-2,6-dione], at SMARCA2, the DC50 is < 100 nM and the Dmax was > 75%. Moreover, at SMARCA4, the DC50 was < 100 nM and the Dmax was > 75%.

On to `CCC12CNc3nnc(-c4cccc(F)c4O)cc3N1CCN(C(=O)C1(F)CCN(CC3CCN(c4ccc5c(c4)C(=O)N([C@H]4CCC(=O)NC4=O)C5)CC3)CC1)C2` (single isomer, unassigned) [Example 108], for which, at SMARCA2, the “SMARCA2 DMax %” value is on record as “A (A=Dmax>75%)” and the DC50 was < 100 nM. Also, on SMARCA4, the DC50 was < 100 nM and the “SMARCA4 DMax %” value is on record as “A (A=Dmax>75%)”.

Consider `CCC12CNc3nnc(-c4cc(F)cc(F)c4O)cc3N1CCN(C(=O)N1[C@H](C)CN(CC3CCN(c4ccc5c(c4)C(=O)N(C4CCC(=O)NC4=O)C5)CC3)C[C@@H]1C)C2` (single isomer, unassigned) [Example 59], for which the DC50 at SMARCA2 and on SMARCA4 was < 100 nM throughout. Also, the Dmax at SMARCA2 and at SMARCA4 was > 75% throughout.

In the case of `CC12CNc3nnc(-c4cccc(F)c4O)cc3N1CCN(C(=O)C1(F)CCN(CC3CCN(c4ccc5c(c4)C(=O)N([C@H]4CCC(=O)NC4=O)C5)CC3)CC1)C2` (single isomer, unassigned) [Example 111], at SMARCA2, the DC50 is < 100 nM and the Dmax was 50 to 75%. Also, on SMARCA4, the DC50 was > 1000 nM and the Dmax is < 50%.

As to `C[C@@H]1C[C@H](CN2CCN(c3ccc4c(c3)C(=O)N([C@H]3CCC(=O)NC3=O)C4)CC2)C[C@H](C)N1C(=O)N1CCN2c3cc(-c4cccc(F)c4O)nnc3NCC2(C(F)(F)F)C1` (single isomer, unassigned) [Example 98], at SMARCA2, the DC50 was < 100 nM and the maximal degradation (Dmax) is > 75%. In addition, at SMARCA4, the DC50 was < 100 nM and the “SMARCA4 DMax %” value is recorded as “A (A=Dmax>75%)”.

As to `CCC12CNc3nnc(-c4cccc(F)c4O)cc3N1CCN(C(=O)N1[C@H](C)CN(CC3CCN(c4ccc5c(c4)C(=O)N(C4CCC(=O)NC4=O)C5)CC3)C[C@@H]1C)C2` (single isomer, unassigned) [Example 86], at SMARCA2, the “SMARCA2 DMax %” value is reported as “A (A=Dmax>75%)” and the DC50 is < 100 nM. Besides, on SMARCA4, the DC50 is < 100 nM and the “SMARCA4 DMax %” value is “A (A=Dmax>75%)”.

Take `CC1(C)CC(CN2CCN(c3ccc4c(c3)C(=O)N([C@H]3CCC(=O)NC3=O)C4)CC2)CCN1C(=O)N1CCN2c3cc(-c4cccc(F)c4O)nnc3NC[C@@]2(C(F)F)C1` (stereo partly drawn) [Example 73, (3S)-3-(6-(4-((1-((S)-6a-(difluoromethyl)-2-(3-fluoro-2-hydroxyphenyl)-6,6a,7,8,9,10-hexahydro-5H-pyrazino[1′,2′:4,5]pyrazino[2,3-c]pyridazine-8-carbonyl)-2,2-dimethylpiperidin-4-yl)methyl)piperazin-1-yl)-1-oxoisoindolin-2-yl)piperidine-2,6-dione]: the DC50 at SMARCA2 is < 100 nM; on SMARCA4, 100 to 1000 nM. Moreover, the Dmax was > 75% on SMARCA2 and < 50% on SMARCA4.

Turning to `C[C@@H]1CN(CC2CCN(c3ccc4c(c3)C(=O)N([C@H]3CCC(=O)NC3=O)C4)CC2)C[C@@H](C)N1C(=O)N1CCN2c3cc(-c4cccc(F)c4O)nnc3NCC2(C(F)(F)F)C1` (single isomer, unassigned) [Example 96], on SMARCA2, the DC50 is < 100 nM and the maximal degradation (Dmax) is > 75%. In addition, on SMARCA4, the DC50 was < 100 nM and the “SMARCA4 DMax %” value was “A (A=Dmax>75%)”.

Take `CCC12CNc3nnc(-c4cccc(F)c4O)cc3N1CCN(C(=O)N1CCN(CC3CCN(c4ccc5c(c4)C(=O)N(C4CCC(=O)NC4=O)C5)CC3)CC1(C)C)C2` (single isomer, unassigned) [Example 79, 3-(6-(4-((4-(6a-ethyl-2-(3-fluoro-2-hydroxyphenyl)-6,6a,7,8,9,10-hexahydro-5H-pyrazino-[1′,2′:4,5]pyrazino[2,3-c]pyridazine-8-carbonyl)-3,3-dimethylpiperazin-1-yl)methyl)-piperidin-1-yl)-1-oxoisoindolin-2-yl)piperidine-2,6-dione]: on SMARCA2, the DC50 was < 100 nM and the Dmax was > 75%. Moreover, on SMARCA4, the DC50 is > 1000 nM and the Dmax is < 50%.

As for `CC1(C)CN(CC2CN(c3ccc4c(c3)C(=O)N(C3CCC(=O)NC3=O)C4)C2)CCN1C(=O)N1CCN2c3cc(-c4cc(F)cc(F)c4O)nnc3NC[C@H]2C1` (stereo partly drawn) [Example 23, 3-(6-(3-((4-((S)-2-(3,5-difluoro-2-hydroxyphenyl)-6,6a,7,8,9,10-hexahydro-5H-pyrazino[1′,2′:4,5]pyrazino[2,3-c]pyridazine-8-carbonyl)-3,3-dimethylpiperazin-1-yl)methyl)azetidin-1-yl)-1-oxoisoindolin-2-yl)piperidine-2,6-dione], on SMARCA2, the DC50 is < 100 nM and the Dmax is > 75%. In addition, at SMARCA4, the DC50 was < 100 nM and the Dmax is < 50%.

Take `C[C@@H]1CN(CC2CCN(c3ccc4c(c3)C(=O)N([C@H]3CCC(=O)NC3=O)C4)CC2)[C@@H](C)CN1C(=O)N1CCN2c3cc(-c4cccc(F)c4O)nnc3NC[C@]2(C(F)F)C1` [Example 68, (S)-3-(6-(4-(((2S,5R)-4-((R)-6a-(difluoromethyl)-2-(3-fluoro-2-hydroxyphenyl)-6,6a,7,8,9,10-hexahydro-5H-pyrazino[1′,2′:4,5]pyrazino[2,3-c]pyridazine-8-carbonyl)-2,5-dimethylpiperazin-1-yl)methyl)piperidin-1-yl)-1-oxoisoindolin-2-yl)piperidine-2,6-dione]: at SMARCA2, the DC50 was < 100 nM and the greatest degradation seen (Dmax) was > 75%. Moreover, at SMARCA4, the DC50 is < 100 nM and the greatest degradation seen (Dmax) lay in the range of 50 to 75%.

With `C[C@@H]1CN(CC2CCN(c3ccc4c(c3)C(=O)N([C@H]3CCC(=O)NC3=O)C4)CC2)C[C@@H](C)N1C(=O)N1CCN2c3cc(-c4cccc(F)c4O)nnc3NC[C@]2(C(F)F)C1` [Example 67, (S)-3-(6-(4-(((3R,5R)-4-((R)-6a-(difluoromethyl)-2-(3-fluoro-2-hydroxyphenyl)-6,6a,7,8,9,10-hexahydro-5H-pyrazino[1′,2′:4,5]pyrazino[2,3-c]pyridazine-8-carbonyl)-3,5-dimethylpiperazin-1-yl)methyl)piperidin-1-yl)-1-oxoisoindolin-2-yl)piperidine-2,6-dione], on SMARCA2, the DC50 is < 100 nM and the Dmax was 50 to 75%. In addition, on SMARCA4, the DC50 was < 100 nM and the Dmax is 50 to 75%.

For the compound `C[C@@H]1C[C@H](CN2CCN(c3ccc4c(c3)C(=O)N([C@H]3CCC(=O)NC3=O)C4)CC2)C[C@H](C)N1C(=O)N1CCN2c3cc(-c4cccc(F)c4O)nnc3NCC2(C)C1` (single isomer, unassigned) [Example 121], the DC50 at SMARCA2 and at SMARCA4 was < 100 nM throughout.

Turning to `C[C@@H]1CN(CC2CCN(c3ccc4c(c3)C(=O)N(C3CCC(=O)NC3=O)C4)CC2)C[C@@H](C)N1C(=O)N1CCN2c3cc(-c4cccc(Cl)c4O)nnc3NCC2(C)C1` (single isomer, unassigned) [Example 63], the DC50 at SMARCA2 and on SMARCA4 was < 100 nM each time.

In the case of `CC1(C)CC(CN2CCN(c3ccc4c(c3)C(=O)N([C@H]3CCC(=O)NC3=O)C4)CC2)CCN1C(=O)N1CCN2c3cc(-c4cccc(F)c4O)nnc3NCC2(C)C1` (single isomer, unassigned) [Example 124], on SMARCA2, the “SMARCA2 DMax %” value is listed as “A (A=Dmax>75%)” and the DC50 is < 100 nM. On SMARCA4, the DC50 is < 100 nM and the “SMARCA4 DMax %” value is on record as “B (B=50%<Dmax≤75%)”.

Turning to `CC1(C)CN(CC2CCN(c3ccc4c(c3)C(=O)N([C@H]3CCC(=O)NC3=O)C4)CC2)CCN1C(=O)N1CCN2c3cc(-c4cccc(F)c4O)nnc3NCC2(C(F)(F)F)C1` (single isomer, unassigned) [Example 101], on SMARCA2, the “SMARCA2 DMax %” value was “B (B=50%<Dmax≤75%)” and the DC50 is < 100 nM. At SMARCA4, the DC50 is > 1000 nM and the “SMARCA4 DMax %” value is recorded as “C (C=Dmax<50%)”.
